Laboratory results published in PubChem BioAssay AID504928 (The Scripps Research Institute Molecular Screening Center, 2011).
Activity calls are given as the source filed them. The rule behind the calls is not given here.

Legend:
Assay in all cases: cell viability loss in various cell types – MTT absorbance, EuMyc, HS578, 70Z/3, T47D, SKBR, late-stage follow-up (AID 504928)
Details in all cases: tumor cell line panel viability, at 10 µM, hits give low values
Raji Cell Line = system: Raji Cell Line
9E10 Cell Line = system: 9E10 Cell Line
EuMyc Lymphoma Cell Line = system: EuMyc Lymphoma Cell Line
HS578 Cell Line = system: HS578 Cell Line
SKBR Cell Line = system: SKBR Cell Line
MCF7 Cell Line = system: MCF7 Cell Line
MD-MDA-231 Cell Line = system: MD-MDA-231 Cell Line
Jurkat Cell Line = system: Jurkat Cell Line
70Z/3 Cell Line = system: 70Z/3 Cell Line
T47D Cell Line = system: T47D Cell Line

O=c1cc(N2CCN(c3cccc(Cl)c3)CC2)[nH]c(=O)n1C1CCCCC1
viability fold change (Raji Cell Line): 0.19
viability fold change (9E10 Cell Line): 0.8 (inactive)
viability fold change (EuMyc Lymphoma Cell Line): 0.63 (inactive)
viability fold change (HS578 Cell Line): 0.16
viability fold change (SKBR Cell Line): 0.19
viability fold change (MCF7 Cell Line): 0.17
viability fold change (MD-MDA-231 Cell Line): 0.11
viability fold change (Jurkat Cell Line): 0.19
viability fold change (70Z/3 Cell Line): 0.5
viability fold change (T47D Cell Line): 0.19
